Experiment: xn = mol fraction of the nth substance listed
Conditions: 101 kPa, Liquid; for speed of sound: Frequency=3 MHz, Single path-length method; for mass density: Vibrating tube method

OCCCO [propan-1,3-diol] + O=C1CCCN1
Conditions	mass density, 303.15 K [kg/m3]	mass density, 308.15 K [kg/m3]	mass density, 313.15 K [kg/m3]	mass density, 318.15 K [kg/m3]	mass density, 323.15 K [kg/m3]	speed of sound, 303.15 K [m/s]	speed of sound, 308.15 K [m/s]	speed of sound, 313.15 K [m/s]	speed of sound, 318.15 K [m/s]	speed of sound, 323.15 K [m/s]
x2 = 0	1046.56	1043.43	1040.28	1037.11	1033.92	1617.6	1606.2	1594.8	1583.5	1572.1
x2 = 0.1108	1052.98	1049.7	1046.4	1043.08	1039.74	1619.8	1607.5	1595.3	1583.4	1571.2
x2 = 0.2172	1059.11	1055.69	1052.25	1048.8	1045.34	1621.2	1608.3	1595.4	1582.9	1569.9
x2 = 0.3044	1064.1	1060.58	1057.04	1053.49	1049.93	1621.9	1608.6	1595.3	1582.3	1568.7
x2 = 0.4174	1070.53	1066.89	1063.24	1059.57	1055.89	1622.4	1608.5	1594.6	1581.1	1566.8
x2 = 0.5076	1075.64	1071.91	1068.17	1064.41	1060.65	1622.4	1608	1593.7	1579.9	1565.1
x2 = 0.6177	1081.83	1078	1074.17	1070.32	1066.47	1621.9	1607	1592.3	1578.2	1562.8
x2 = 0.6909	1085.92	1082.04	1078.15	1074.25	1070.34	1621.4	1606.2	1591.2	1576.8	1561.1
x2 = 0.8139	1092.77	1088.8	1084.83	1080.85	1076.87	1620.2	1604.5	1589	1574.4	1558.2
x2 = 0.8736	1096.07	1092.07	1088.06	1084.05	1080.04	1619.5	1603.5	1587.9	1573.1	1556.8

O=C1CCCN1 [2-pyrrolidinone] + CC(O)CO
Conditions	mass density, 303.15 K [kg/m3]	mass density, 308.15 K [kg/m3]	mass density, 313.15 K [kg/m3]	mass density, 318.15 K [kg/m3]	mass density, 323.15 K [kg/m3]	speed of sound, 303.15 K [m/s]	speed of sound, 308.15 K [m/s]	speed of sound, 313.15 K [m/s]	speed of sound, 318.15 K [m/s]	speed of sound, 323.15 K [m/s]
x1 = 0.0994	1038.42	1034.26	1030.26	1026.14	1021.99	1511.8	1497.1	1482.2	1467.6	1453
x1 = 0.1962	1047.15	1042.74	1038.53	1034.14	1029.74	1526.8	1511.5	1496.4	1481.6	1466.5
x1 = 0.3038	1056.3	1051.69	1047.29	1042.69	1038.13	1543.7	1528.1	1512.5	1497.3	1481.7
x1 = 0.4148	1065.17	1060.55	1055.91	1051.2	1046.49	1560.1	1544.3	1528.5	1513.2	1497.3
x1 = 0.5021	1071.72	1067.1	1062.38	1057.63	1052.9	1571.9	1555.9	1540	1524.6	1508.5
x1 = 0.5951	1078.36	1073.71	1069.03	1064.29	1059.57	1583.5	1567.3	1551.2	1535.7	1519.4
x1 = 0.6891	1084.67	1080.01	1075.46	1070.79	1066.14	1594.1	1577.5	1561.4	1545.9	1529.3
x1 = 0.7994	1091.64	1087.08	1082.66	1078.14	1073.64	1604.8	1588.2	1572	1556.7	1539.9
x1 = 0.8908	1097.03	1092.6	1088.37	1084.03	1079.69	1612.3	1595.6	1579.6	1563.9	1546.7
x1 = 1	1103.07	1098.99	1094.9	1090.82	1086.75	1617.7	1601.3	1585.4	1570.4	1553.5

From the NIST ThermoML archive (doi:10.1016/j.jct.2017.03.022)
